Experiments:
Format in all cases: biochemical
UGT71C1 = target: T1, UGT71C1 (Arabidopsis thaliana, UniProt O82381); test: UGT71C1 glucosyltransferase specific activity towards phenolic compounds (reverse-phase HPLC); conditions: 1 mM phenolic compound, 5 mM UDP-glucose, 50 mM TRIS-HCl pH 7.0, 30° C., 30 min; mean of three replicates ± standard deviation
T1 construct: GST (N); made in house; host or cells: E. coli
T1 sequence (O82381 1-481): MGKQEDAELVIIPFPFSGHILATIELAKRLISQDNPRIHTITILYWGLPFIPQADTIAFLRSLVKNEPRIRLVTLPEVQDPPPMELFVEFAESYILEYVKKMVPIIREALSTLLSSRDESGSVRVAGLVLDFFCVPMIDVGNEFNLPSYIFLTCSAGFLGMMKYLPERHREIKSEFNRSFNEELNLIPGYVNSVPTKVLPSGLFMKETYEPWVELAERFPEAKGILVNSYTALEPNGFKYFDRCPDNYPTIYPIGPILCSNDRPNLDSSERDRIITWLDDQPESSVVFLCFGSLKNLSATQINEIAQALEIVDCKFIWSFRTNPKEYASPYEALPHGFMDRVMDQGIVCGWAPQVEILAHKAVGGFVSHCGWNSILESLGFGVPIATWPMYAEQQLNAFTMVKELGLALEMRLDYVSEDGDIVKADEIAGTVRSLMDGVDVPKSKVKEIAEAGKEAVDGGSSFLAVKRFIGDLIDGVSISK

recombinant GTase A962 = target: T2, recombinant GTase A962 (Arabidopsis thaliana, UniProt O82382); test: Specific activity of recombinant GTase producing O-glucosides against lignin precursors (HPLC); conditions: 30° C.; ND = not detected
T2 construct: made in house; host or cells: E. coli
T2 sequence (O82382 1-474): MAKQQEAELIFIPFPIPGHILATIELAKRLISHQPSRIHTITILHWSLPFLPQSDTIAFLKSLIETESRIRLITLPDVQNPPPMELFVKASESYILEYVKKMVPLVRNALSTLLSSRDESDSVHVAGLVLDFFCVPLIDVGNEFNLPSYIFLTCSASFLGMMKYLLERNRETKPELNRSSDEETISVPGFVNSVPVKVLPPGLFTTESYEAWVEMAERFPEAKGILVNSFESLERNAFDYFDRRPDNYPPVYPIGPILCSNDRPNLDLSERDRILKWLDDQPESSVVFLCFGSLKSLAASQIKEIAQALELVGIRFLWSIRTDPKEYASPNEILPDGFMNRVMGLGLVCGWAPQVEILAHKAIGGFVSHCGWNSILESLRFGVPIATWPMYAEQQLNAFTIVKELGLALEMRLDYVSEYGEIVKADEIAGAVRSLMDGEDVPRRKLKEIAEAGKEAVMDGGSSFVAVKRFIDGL

recombinant GTase A961 = target: T3, recombinant GTase A961 (Arabidopsis thaliana, UniProt O82381); test: as above; conditions: 30° C.; ND = not detected
T3 construct: made in house; host or cells: E. coli
T3 sequence (O82381 1-481): T1 sequence (O82381 1-481)

recombinant GTase A233 = target: T4, recombinant GTase A233 (Arabidopsis thaliana, UniProt Q8W491); test: as above; conditions: 30° C.; ND = not detected
T4 construct: made in house; host or cells: E. coli

recombinant GTase A407 = target: T5, recombinant GTase A407 (Arabidopsis thaliana, UniProt O81498); test: as above; conditions: 30° C.; ND = not detected
T5 construct: made in house; host or cells: E. coli
T5 sequence (O81498 1-481): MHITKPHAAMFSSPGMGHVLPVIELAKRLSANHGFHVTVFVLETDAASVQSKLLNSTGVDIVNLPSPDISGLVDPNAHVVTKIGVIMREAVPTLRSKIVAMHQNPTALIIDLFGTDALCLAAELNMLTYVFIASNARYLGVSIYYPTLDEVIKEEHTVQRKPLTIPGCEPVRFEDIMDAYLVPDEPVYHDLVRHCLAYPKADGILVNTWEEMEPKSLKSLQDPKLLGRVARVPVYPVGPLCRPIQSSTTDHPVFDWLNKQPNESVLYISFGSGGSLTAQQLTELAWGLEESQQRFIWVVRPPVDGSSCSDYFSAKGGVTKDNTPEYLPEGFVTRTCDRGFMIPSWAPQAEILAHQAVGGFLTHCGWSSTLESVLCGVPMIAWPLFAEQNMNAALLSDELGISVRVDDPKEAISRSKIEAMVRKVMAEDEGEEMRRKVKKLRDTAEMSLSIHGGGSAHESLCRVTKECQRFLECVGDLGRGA

recombinant GTase A119 = target: T6, recombinant GTase A119 (Arabidopsis thaliana, UniProt Q9LVR1); test: as above; conditions: 30° C.; ND = not detected
T6 construct: made in house; host or cells: E. coli
T6 sequence (Q9LVR1 1-481): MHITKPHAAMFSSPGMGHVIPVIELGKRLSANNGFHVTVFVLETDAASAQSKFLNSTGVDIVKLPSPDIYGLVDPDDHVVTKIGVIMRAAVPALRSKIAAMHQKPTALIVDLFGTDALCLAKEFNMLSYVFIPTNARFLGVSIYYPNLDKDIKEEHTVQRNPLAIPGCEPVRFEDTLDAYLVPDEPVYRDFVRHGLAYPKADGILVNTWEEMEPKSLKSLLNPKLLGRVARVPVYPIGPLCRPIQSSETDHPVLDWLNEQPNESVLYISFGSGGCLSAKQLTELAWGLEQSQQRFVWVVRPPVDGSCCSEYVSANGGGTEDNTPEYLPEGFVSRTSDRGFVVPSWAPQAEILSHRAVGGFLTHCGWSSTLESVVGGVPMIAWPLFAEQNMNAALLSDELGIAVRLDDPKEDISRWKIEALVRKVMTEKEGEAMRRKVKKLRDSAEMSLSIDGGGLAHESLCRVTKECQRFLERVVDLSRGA

recombinant GTase A911 = target: T7, recombinant GTase A911 (Arabidopsis thaliana, UniProt O22182); test: Specific activity of recombinant GTase producing glucose ester against lignin precursors (HPLC); design: made in house; host or cells: E. coli; conditions: 0.5 ml of potential substrates, 5 mM UDPG, 0.2 μg GTase, 200 μl, 20° C., 30 min
T7 sequence (O22182 1-456): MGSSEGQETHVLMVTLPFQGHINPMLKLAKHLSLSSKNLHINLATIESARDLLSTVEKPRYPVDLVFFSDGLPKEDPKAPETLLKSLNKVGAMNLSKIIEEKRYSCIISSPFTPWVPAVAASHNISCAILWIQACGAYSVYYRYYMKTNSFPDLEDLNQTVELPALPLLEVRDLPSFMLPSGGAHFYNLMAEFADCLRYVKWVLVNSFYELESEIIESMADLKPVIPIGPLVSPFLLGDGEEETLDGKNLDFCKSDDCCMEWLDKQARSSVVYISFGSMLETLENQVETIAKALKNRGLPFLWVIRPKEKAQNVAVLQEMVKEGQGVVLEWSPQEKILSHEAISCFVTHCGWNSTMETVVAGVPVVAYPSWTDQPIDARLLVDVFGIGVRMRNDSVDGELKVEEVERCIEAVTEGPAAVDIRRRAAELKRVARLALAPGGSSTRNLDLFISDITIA

recombinant GTase A43 = target: T8, recombinant GTase A43 (Arabidopsis thaliana, UniProt O23402); test: as above; conditions: 0.5 ml of potential substrates, 5 mM UDPG, 0.2 μg GTase, 200 μl, 20° C., 30 min
T8 construct: made in house; host or cells: E. coli

recombinant GTase A062 = target: T9, recombinant GTase A062 (Arabidopsis thaliana, UniProt Q9LR44); test: as above; conditions: 0.5 ml of potential substrates, 5 mM UDPG, 0.2 μg GTase, 200 μl, 20° C., 30 min
T9 construct: made in house; host or cells: E. coli
T9 sequence (Q9LR44 1-469): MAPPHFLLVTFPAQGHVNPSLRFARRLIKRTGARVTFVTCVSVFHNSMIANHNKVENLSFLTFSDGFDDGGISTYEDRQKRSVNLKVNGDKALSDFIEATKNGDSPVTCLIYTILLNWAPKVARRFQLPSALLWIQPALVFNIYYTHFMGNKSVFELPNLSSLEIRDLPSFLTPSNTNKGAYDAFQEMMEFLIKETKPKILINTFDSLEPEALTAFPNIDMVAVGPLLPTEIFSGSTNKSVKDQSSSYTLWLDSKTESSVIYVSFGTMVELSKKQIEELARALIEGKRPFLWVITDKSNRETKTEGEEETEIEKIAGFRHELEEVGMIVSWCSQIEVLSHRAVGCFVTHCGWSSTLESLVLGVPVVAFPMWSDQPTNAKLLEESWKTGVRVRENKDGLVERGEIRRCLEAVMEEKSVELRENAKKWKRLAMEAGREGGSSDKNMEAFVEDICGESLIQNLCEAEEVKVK

recombinant GTase A41 = target: T10, recombinant GTase A41 (Arabidopsis thaliana, UniProt Q5XF20); test: as above; conditions: 5 mM UDPG, 0.2 μg GTase, 200 μl, 20° C., 30 min
T10 construct: made in house; host or cells: E. coli
T10 sequence (Q5XF20 7-490): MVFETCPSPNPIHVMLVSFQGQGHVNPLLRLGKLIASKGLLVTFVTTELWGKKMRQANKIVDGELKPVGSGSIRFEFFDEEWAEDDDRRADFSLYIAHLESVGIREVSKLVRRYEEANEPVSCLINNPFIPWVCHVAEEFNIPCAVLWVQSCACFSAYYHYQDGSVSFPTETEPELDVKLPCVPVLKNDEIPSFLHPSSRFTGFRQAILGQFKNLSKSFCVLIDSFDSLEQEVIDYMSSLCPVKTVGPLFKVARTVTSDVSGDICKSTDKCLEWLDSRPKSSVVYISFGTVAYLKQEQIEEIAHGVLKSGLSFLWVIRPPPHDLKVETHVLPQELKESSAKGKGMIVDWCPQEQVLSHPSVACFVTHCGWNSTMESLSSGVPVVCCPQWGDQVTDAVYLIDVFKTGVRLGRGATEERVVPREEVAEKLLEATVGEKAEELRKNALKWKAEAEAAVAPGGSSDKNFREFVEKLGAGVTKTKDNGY

Specific activity (UGT71C1) (UGT71C1) [nkat/mg] | Molecule | Specific activity of A962 (substrate converted to 4-O-glucoside) (recombinant GTase A962) [nkat/mg] | Specific activity of A961 (substrate converted to 4-O-glucoside) (recombinant GTase A961) [nkat/mg] | other results
0 | O=C(O)c1ccc(O)cc1 [4-hydroxybenzoic acid] |  |  | 
 | COc1cc(/C=C/CO)ccc1O [Coniferyl alcohol, coniferyl alcohol] | 0.49 | 0.57 | Specific activity of A233 (substrate converted to 4-O-glucoside) (recombinant GTase A233): 0.46 nkat/mg; Specific activity of A407 (substrate converted to 4-O-glucoside) (recombinant GTase A407): 2.78 nkat/mg
 | COc1cc(/C=C/C=O)ccc1O [Coniferyl aldehyde, coniferyl aldehyde] | 0.34 | 0.16 | Specific activity of A119 (substrate converted to 4-O-glucoside) (recombinant GTase A119): 1.08 nkat/mg
0 | O=C1C[C@@H](c2ccc(O)c(O)c2)Oc2cc(O)cc(O)c21 [Eriodictyol] |  |  | 
34.8 ± 4.2 | O=c1ccc2cc(O)c(O)cc2o1 [Esculetin] |  |  | 
0.7 ± 0.1 | O=c1cc(-c2ccc(O)c(O)c2)oc2cc(O)cc(O)c12 [Luteolin] |  |  | 
1.4 ± 0.4 | O=c1c(O)c(-c2ccc(O)c(O)c2)oc2cc(O)cc(O)c12 [Quercetin] |  |  | 
29.4 ± 3.9 | COc1cc2ccc(=O)oc2cc1O [Scopoletin] |  |  | 
1.2 ± 0.2 | O=C(O)/C=C/c1cccc(O)c1 [m-Coumaric acid] |  |  | 
1.5 ± 0.2 | O=C(O)/C=C/c1ccccc1O [o-Coumaric acid] |  |  | 
 | O=C/C=C/c1ccc(O)cc1 [p-coumaryl aldehyde] | 0.02 | 0.01 | Specific activity of A119 (substrate converted to 4-O-glucoside) (recombinant GTase A119): 0.03 nkat/mg
 | COc1cc(/C=C/CO)cc(OC)c1O [sinapyl alcohol] | 0.45 | 0.35 | Specific activity of A119 (substrate converted to 4-O-glucoside) (recombinant GTase A119): 126.16 nkat/mg; Specific activity of A233 (substrate converted to 4-O-glucoside) (recombinant GTase A233): 0.05 nkat/mg; Specific activity of A407 (substrate converted to 4-O-glucoside) (recombinant GTase A407): 114.76 nkat/mg
 | COc1cc(/C=C/C=O)cc(OC)c1O [sinapyl aldehyde] | 0.50 | 0.57 | Specific activity of A119 (substrate converted to 4-O-glucoside) (recombinant GTase A119): 4.55 nkat/mg

Molecule | Specific activity (UGT71C1) (UGT71C1) [nkat/mg] | Specific activity of A962 (substrate converted to 4-O-glucoside) (recombinant GTase A962) [nkat/mg] | Specific activity of A961 (substrate converted to 4-O-glucoside) (recombinant GTase A961) [nkat/mg] | other results
O=C(O)c1ccc(O)c(O)c1 [3,4-dihydroxybenzoic acid] | 0 |  |  | 
COc1cc(/C=C/C(=O)O)cc(OC)c1O [Sinapic acid, sinapic acid] | 0 | 0.01 | 0.01 | Specific activity of A911 (substrate converted to glucose ester) (recombinant GTase A911): 0.15 nkat/mg; Specific activity of A43 (substrate converted to glucose ester) (recombinant GTase A43): 0.05 nkat/mg; Specific activity of A062 (substrate converted to glucose ester) (recombinant GTase A062): 0.1 nkat/mg; Specific activity of A233 (substrate converted to 4-O-glucoside) (recombinant GTase A233): 0.39 nkat/mg; Specific activity of A407 (substrate converted to 4-O-glucoside) (recombinant GTase A407): 65.39 nkat/mg; Specific activity of A41 (substrate converted to glucose ester) (recombinant GTase A41): 5.35 nkat/mg
Catechin | 0 |  |  | 

Reference: patent publication US7335814B2, “Transgenic cells expressing glucosyltransferase nucleic acids” (The University of York, priority 2000, dated 2008)
